In patent US10597388B2, “Pyridazinone herbicides” (FMC CORPORATION, priority 2014, dated 2020):

What was measured:
Format in all cases: in vivo
kochia (Kochia scoparia) = assay: Test A greenhouse herbicide test, pre- and postemergence
Summary of the method: (§1)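 Seeds in loam–sand blend received a preemergence directed soil spray; plants at 2–10 cm, one- to two-leaf stage, received postemergence sprays. Compounds in a non-phytotoxic solvent with surfactant. After about 10 d in a greenhouse, injury rated visually versus untreated controls on a 0–100 scale (100 = complete control).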

corn (Zea mays) = assay: as above; settings: Postemergence; for Plant response rating, Corn: 125 g ai/ha, 0 to 100 scale where 0 is no effect and 100 is complete control; for Corn plant response rating: 500 g ai/ha, 0 to 100 scale, 0 is no effect, 100 is complete control
Summary of the method: as §1

[1] = tested on: foxtail, giant (giant foxtail, Setaria faberii); assay: as above
Summary of the method: as §1

[2] = tested on: pigweed (Amaranthus retroflexus); assay: as above
Summary of the method: as §1

[3] = tested on: ryegrass, Italian (Italian ryegrass, Lolium multiflorum); assay: as above
Summary of the method: as §1

[4] = tested on: ragweed (common ragweed, Ambrosia elatior); assay: as above
Summary of the method: as §1

[5] = tested on: wheat (Triticum aestivum); assay: as above; settings: Postemergence; for Plant response rating, Wheat: 125 g ai/ha, 0 to 100 scale where 0 is no effect and 100 is complete control; for Wheat plant response rating: 500 g ai/ha, 0 to 100 scale, 0 is no effect, 100 is complete control
Summary of the method: as §1

[6] = tested on: galium (catchweed bedstraw, Galium aparine); assay: Test C greenhouse herbicide test, pre- and postemergence
Summary of the method: (§2)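 Seeds sown in loam–sand blend treated preemergence; plants in peat-based medium sprayed postemergence at 2–18 cm (1- to 4-leaf stage); chemicals in non-phytotoxic solvent with surfactant. Greenhouse 13–15 d, then visual rating versus controls on 0–100 scale (0 no effect, 100 complete control).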

[7] = tested on: velvetleaf (Abutilon theophrasti); assay: as above
Summary of the method: as §2

[8] = tested on: oilseed rape (Brassica napus); assay: as above
Summary of the method: as §2

[9] = tested on: nutsedge, yellow (yellow nutsedge, Cyperus esculentus); assay: as above
Summary of the method: as §2

[10] = Postemergence, 125 g ai/ha, 0 to 100 scale where 0 is no effect and 100 is complete control
[11] = Postemergence, 500 g ai/ha, 0 to 100 scale, 0 is no effect, 100 is complete control
[12] = Preemergence, 125 g ai/ha, 0 to 100 scale where 0 is no effect and 100 is complete control
[13] = Preemergence, 500 g ai/ha, 0 to 100 scale, 0 no effect, 100 complete control
[14] = Postemergence, 31 g ai/ha, 0 to 100 scale (0 no effect, 100 complete control)
[15] = Postemergence, 125 g ai/ha, scale 0 to 100, 0 is no effect, 100 is complete control
[16] = Postemergence, 250 g ai/ha, scale 0 to 100, 0 no effect, 100 complete control, 13 to 15 d
[17] = Preemergence, 31 g ai/ha, scale 0 to 100, 0 is no effect, 100 is complete control
[18] = Preemergence, 62 g ai/ha, scale 0 to 100, 0 is no effect, 100 is complete control
[19] = Preemergence, 125 g ai/ha, scale 0 to 100, 0 is no effect, 100 is complete control
[20] = Preemergence, 250 g ai/ha, scale 0 to 100 (0 no effect, 100 complete control)
[21] = postemergence, 62 g ai/ha, scale 0 to 100, 0 no effect, 100 complete control

For CCC(=O)Oc1c(C)nn(C)c(=O)c1-c1c(C)sc2ccc(C)cc12 [Compound 42], which “Plant response rating, Kochia” value (kochia (Kochia scoparia); [10]) is on record?
The value was 100.

What about the “Kochia plant response rating” value (kochia (Kochia scoparia); [11]) of the same compound?
The value was 100.

And the “Kochia plant response rating” value (kochia (Kochia scoparia); [12])?
The value was 80.

What about the “Plant response rating, Kochia” value (kochia (Kochia scoparia); [13]) of the same compound?
Its value is 100.

What about the “Plant response rating, Corn” value (corn (Zea mays)) of the same compound?
The value was 0.

What about the “Corn plant response rating” value (corn (Zea mays)) of the same compound?
The value was 20.

What about the “Plant response rating, Foxtail, Giant” value [1, 10] of the same compound?
The value was 90.

And the “Foxtail, Giant plant response rating” value [1, 11]?
Its value is 100.

And the “Foxtail, Giant plant response rating” value [1, 12]?
The value was 80.

What about the “Plant response rating, Foxtail, Giant” value [1, 13] of the same compound?
The value was 100.

And the “Plant response rating, Pigweed” value [2, 10]?
The value was 90.

What about the “Pigweed plant response rating” value [2, 11] of the same compound?
The value was 100.

What about the “Pigweed plant response rating” value [2, 12] of the same compound?
Its value is 100.

What about the “Plant response rating, Pigweed” value [2, 13] of the same compound?
Its value is 100.

What about the “Plant response rating, Ryegrass, Italian” value [3, 10] of the same compound?
Its value is 100.

And the “Ryegrass, Italian plant response rating” value [3, 11]?
The value was 100.

What about the “Ryegrass, Italian plant response rating” value [3, 12] of the same compound?
Its value is 100.

What about the “Plant response rating, Ryegrass, Italian” value [3, 13] of the same compound?
Its value is 100.

And the “Plant response rating, Ragweed” value [4, 10]?
The value was 100.

And the “Ragweed plant response rating” value [4, 11]?
The value was 100.

And the “Ragweed plant response rating” value [4, 12]?
Its value is 90.

What about the “Plant response rating, Ragweed” value [4, 13] of the same compound?
The value was 100.

What about the “Plant response rating, Wheat” value [5] of the same compound?
Its value is 0.

What about the “Wheat plant response rating” value [5] of the same compound?
The value was 20.

What about the “Galium plant response rating” value [6, 14] of the same compound?
The value was 95.

What about the “Plant response rating, Galium” value [6, 15] of the same compound?
Its value is 100.

What about the “Plant response rating, Galium” value [6, 16] of the same compound?
The value was 95.

What about the “Plant response rating, Galium” value [6, 17] of the same compound?
Its value is 90.

And the “Plant response rating, Galium” value [6, 18]?
Its value is 90.

And the “Plant response rating, Galium” value [6, 19]?
Its value is 95.

And the “Galium plant response rating” value [6, 20]?
Its value is 98.

What about the “Galium plant response rating” value [6, 21] of the same compound?
The value was 90.

And the “Velvetleaf plant response rating” value [7, 14]?
Its value is 45.

What about the “Plant response rating, Velvetleaf” value [7, 15] of the same compound?
Its value is 85.

And the “Plant response rating, Velvetleaf” value [7, 16]?
Its value is 95.

And the “Plant response rating, Velvetleaf” value [7, 17]?
The value was 85.

What about the “Plant response rating, Velvetleaf” value [7, 18] of the same compound?
The value was 90.

And the “Plant response rating, Velvetleaf” value [7, 19]?
Its value is 90.

What about the “Velvetleaf plant response rating” value [7, 20] of the same compound?
The value was 98.

What about the “Velvetleaf plant response rating” value [7, 21] of the same compound?
Its value is 85.

And the “Oilseed Rape plant response rating” value [8, 14]?
The value was 0.

And the “Plant response rating, Oilseed Rape” value [8, 15]?
The value was 10.

What about the “Plant response rating, Oilseed Rape” value [8, 16] of the same compound?
Its value is 0.

And the “Plant response rating, Oilseed Rape” value [8, 17]?
The value was 0.

What about the “Plant response rating, Oilseed Rape” value [8, 18] of the same compound?
Its value is 0.

What about the “Plant response rating, Oilseed Rape” value [8, 19] of the same compound?
The value was 5.

And the “Oilseed Rape plant response rating” value [8, 20]?
Its value is 20.

What about the “Oilseed Rape plant response rating” value [8, 21] of the same compound?
Its value is 5.

And the “Nutsedge, Yellow plant response rating” value [9, 14]?
The value was 65.

And the “Plant response rating, Nutsedge, Yellow” value [9, 16]?
Its value is 95.

What about the “Plant response rating, Nutsedge, Yellow” value [9, 17] of the same compound?
Its value is 55.

What about the “Plant response rating, Nutsedge, Yellow” value [9, 18] of the same compound?
The value was 60.

What about the “Plant response rating, Nutsedge, Yellow” value [9, 19] of the same compound?
The value was 40.

What about the “Nutsedge, Yellow plant response rating” value [9, 20] of the same compound?
Its value is 80.

And the “Nutsedge, Yellow plant response rating” value [9, 21]?
The value was 75.

What does the source list for Cc1cc(C)c2ccccc2c1-c1c(O)cnn(C)c1=O [Compound 51]?
Plant response rating, Kochia (kochia (Kochia scoparia); [10]): 70; Kochia plant response rating (kochia (Kochia scoparia); [11]): 90; Kochia plant response rating (kochia (Kochia scoparia); [12]): 0; Plant response rating, Kochia (kochia (Kochia scoparia); [13]): 30; Plant response rating, Corn (corn (Zea mays)): 0; Corn plant response rating (corn (Zea mays)): 0; Plant response rating, Foxtail, Giant [1, 10]: 50; Foxtail, Giant plant response rating [1, 11]: 80; Foxtail, Giant plant response rating [1, 12]: 50; Plant response rating, Foxtail, Giant [1, 13]: 90; Plant response rating, Pigweed [2, 10]: 70; Pigweed plant response rating [2, 11]: 90; Pigweed plant response rating [2, 12]: 70; Plant response rating, Pigweed [2, 13]: 100; Plant response rating, Ryegrass, Italian [3, 10]: 60; Ryegrass, Italian plant response rating [3, 11]: 90; Ryegrass, Italian plant response rating [3, 12]: 50; Plant response rating, Ryegrass, Italian [3, 13]: 90; Plant response rating, Ragweed [4, 10]: 70; Ragweed plant response rating [4, 11]: 70; Ragweed plant response rating [4, 12]: 30; Plant response rating, Ragweed [4, 13]: 80; Plant response rating, Wheat [5]: 0; Wheat plant response rating [5]: 0; Galium plant response rating [6, 14]: 85; Plant response rating, Galium [6, 15]: 90; Plant response rating, Galium [6, 16]: 95; Galium plant response rating [6, 21]: 90; Velvetleaf plant response rating [7, 14]: 5; Plant response rating, Velvetleaf [7, 15]: 50; Plant response rating, Velvetleaf [7, 16]: 70; Velvetleaf plant response rating [7, 21]: 20; Oilseed Rape plant response rating [8, 14]: 0; Plant response rating, Oilseed Rape [8, 15]: 5; Plant response rating, Oilseed Rape [8, 16]: 5; Oilseed Rape plant response rating [8, 21]: 5; Nutsedge, Yellow plant response rating [9, 14]: 35; Plant response rating, Nutsedge, Yellow [9, 15]: 85; Plant response rating, Nutsedge, Yellow [9, 16]: 90; Nutsedge, Yellow plant response rating [9, 21]: 70

Which results are given for Cc1ccc(-c2c(O)c(Br)nn(C)c2=O)c2ccccc12 [Compound 52]?
Plant response rating, Kochia (kochia (Kochia scoparia); [10]): 40; Kochia plant response rating (kochia (Kochia scoparia); [11]): 100; Kochia plant response rating (kochia (Kochia scoparia); [12]): 0; Plant response rating, Kochia (kochia (Kochia scoparia); [13]): 80; Plant response rating, Corn (corn (Zea mays)): 0; Corn plant response rating (corn (Zea mays)): 20; Plant response rating, Foxtail, Giant [1, 10]: 40; Foxtail, Giant plant response rating [1, 11]: 50; Foxtail, Giant plant response rating [1, 12]: 40; Plant response rating, Foxtail, Giant [1, 13]: 60; Plant response rating, Pigweed [2, 10]: 10; Pigweed plant response rating [2, 11]: 30; Pigweed plant response rating [2, 12]: 10; Plant response rating, Pigweed [2, 13]: 60; Plant response rating, Ryegrass, Italian [3, 10]: 70; Ryegrass, Italian plant response rating [3, 11]: 80; Ryegrass, Italian plant response rating [3, 12]: 80; Plant response rating, Ryegrass, Italian [3, 13]: 80; Plant response rating, Ragweed [4, 10]: 90; Ragweed plant response rating [4, 11]: 100; Ragweed plant response rating [4, 12]: 20; Plant response rating, Ragweed [4, 13]: 80; Plant response rating, Wheat [5]: 0; Wheat plant response rating [5]: 0; Galium plant response rating [6, 14]: 90; Plant response rating, Galium [6, 15]: 100; Plant response rating, Galium [6, 16]: 100; Galium plant response rating [6, 21]: 100; Velvetleaf plant response rating [7, 14]: 5; Plant response rating, Velvetleaf [7, 15]: 55; Plant response rating, Velvetleaf [7, 16]: 100; Velvetleaf plant response rating [7, 21]: 25; Oilseed Rape plant response rating [8, 14]: 0; Plant response rating, Oilseed Rape [8, 15]: 0; Plant response rating, Oilseed Rape [8, 16]: 0; Oilseed Rape plant response rating [8, 21]: 0; Nutsedge, Yellow plant response rating [9, 14]: 60; Plant response rating, Nutsedge, Yellow [9, 15]: 90; Plant response rating, Nutsedge, Yellow [9, 16]: 95; Nutsedge, Yellow plant response rating [9, 21]: 80
